From patent publication US5643887A, “Daunomycin derivative with reduced cytotoxicity toward normal cells” (The Scripps Research Institute, priority 1995, dated 1997)

Experiments:
[1] = system: HL-60 (promyelocytic leukemia); test: Sulforhodamine B cytotoxicity assay, HL-60; type: cell-based; conditions: Homo sapiens, transformed, 72 hours
Experimental: (§1) 1. Preparation of target cells in 96-well plates
(§2) 2. Preparation of sample drugs and toxic control a. Stock drug solutions were prepared by dissolving drug in the appropriate solvent (determined during chemical characterization studies) and sterile filtering the drug-solvent solution through a sterile 0.2 μ filter unit. An aliquot was taken from each filtered drug solution and the O.D. was measured to determine the drug concentration. […]
(§3) b. Dilute the stock drug solution prepared above with T.C. medium to the desired initial concentration (10^-2 -10^-4 M). A minimum volume of 220 μL of diluted drug is required per 96-well plate used in the assay.
(§4) 3. Addition of Sample Compounds and Controls to 96-well Plates b. Add 100 μL of the initial .compound dilution to adjacent duplicate wells in Columns #2. (Four materials can be tested in duplicate per 96-well plate.) c. Remove 10 μL of diluted compound from the wells in Column #2 and transfer to the corresponding wells in Column #3. Mix by pipetting up and down gently approximately five times. d. Transfer 10 μL to the appropriate wells in Column #4 and continue to make […] dilutions of compound across the plate through Column #12. f. Incubate (37° C., 5-10 percent CO2 in humidified incubator) plates for a total of 72 hours. […]
(§5) IC50 values; i.e., the concentration of Compound required to kill one-half of the treated cells, were then calculated. […]

HT-29 (colon carcinoma) = test: Sulforhodamine B cytotoxicity assay, HT-29; type: cell-based; conditions: Homo sapiens, transformed, 72 hours
Experimental: as §1, §2, §3, §4, §5

MCF-7 (breast carcinoma) = test: Sulforhodamine B cytotoxicity assay, MCF-7; type: cell-based; conditions: Homo sapiens, MCF7, transformed, 72 hours
Experimental: as §1, §2, §3, §4, §5

MOLT-4 (T cell leukemia) = test: Sulforhodamine B cytotoxicity assay, MOLT-4; type: cell-based; conditions: Homo sapiens, transformed, 72 hours
Experimental: as §1, §2, §3, §4, §5

SK-Mel-28 (melanoma) = test: Sulforhodamine B cytotoxicity assay, SK-Mel-28; type: cell-based; conditions: Homo sapiens, transformed, 72 hours
Experimental: as §1, §2, §3, §4, §5

[2] = system: Copan-1 (pancreatic carcinoma); test: Sulforhodamine B cytotoxicity assay, Copan-1; type: cell-based; conditions: transformed, 72 hours
Experimental: as §1, §2, §3, §4, §5

P-388 (mouse leukemia) = test: Sulforhodamine B cytotoxicity assay, P-388; type: cell-based; conditions: P388, transformed, 72 hours
Experimental: as §1, §2, §3, §4, §5

[3] = system: Ovcar-3 (ovarian carcinoma); test: Sulforhodamine B cytotoxicity assay, Ovcar-3; type: cell-based; conditions: Homo sapiens, transformed, 72 hours
Experimental: as §1, §2, §3, §4, §5

UCLA-P3 (lung carcinoma) = test: Sulforhodamine B cytotoxicity assay, UCLA-P3; type: cell-based; conditions: Homo sapiens, UCLA P-3, transformed, 72 hours
Experimental: as §1, §2, §3, §4
(§6) IC50 values; i.e., the concentration of Compound required to kill one-half of the treated cells, were then calculated.

[4] = system: HMEC (human mammary epithelial cells); test: Sulforhodamine B cytotoxicity assay, HMEC; type: cell-based; conditions: non-transformed, 72 hours
Experimental: as §1, §2, §3, §4, §6

[5] = system: NHDF (normal human dermal fibroblasts); test: Sulforhodamine B cytotoxicity assay, NHDF; type: cell-based; conditions: non-transformed, 72 hours
Experimental: as §1, §2, §3, §4, §6

CHO cells = test: Sulforhodamine B cytotoxicity assay, CHO; type: cell-based; conditions: Cricetulus griseus, non-transformed, 72 hours
Experimental: as §1, §2, §3, §4, §5

[6] = system: PBL (human peripheral blood lymphocytes); test: Sulforhodamine B cytotoxicity assay, PBL; type: cell-based; conditions: Lymphocyte, non-transformed, 72 hours
Experimental: as §1, §2, §3, §4, §6

[7] = system: transformed, cancerous cell lines; test: Cytotoxicity comparison with daunomycin, cancer cell lines; type: cell-based
Experimental: SULFORHODAMINE B CYTOTOXICITY ASSAY
as §6
All other cells or cell lines were obtained from the American Type Culture Collection (ATCC) (all except CHO cells are human or mouse cancer cell lines as described by the ATCC).

LD50 in mice = conditions: mouse, in vivo, ip, here found
Experimental: Daunomycin has a reported LD50 in mice of 20 mg/kg when administered intravenously (i.v.) and 5 mg/kg when administered intraperitoneally (i.p.) [Merck Index, 11th ed., Merck & Co., Inc., Rahway, N.J., page 445 (1989)].

[8] = system: EMT-6 mammary tumor cells; test: In vivo mouse study, EMT-6 mammary tumor
Experimental: FIG. 1 is a graph showing the average tumor size in 6-10 week old female Balb/c BYJ mice inoculated with EMT-6 mammary tumor cells. Control mice (open squares) were treated with normal saline on days 1, 5 and 9 after inoculation. Study mice (X's) were treated with an equal volume of normal saline containing 15 mg/kg of Compound I on those same days post inoculation with the tumor cells.
The data of FIG. 1 illustrate an in vivo study using Compound 1. Here, groups of 6-10 week old, female Balb/c BYJ mice (obtained from The Scripps Research Institute breeding colony, La Jolla, Calif.) (8 per group) were inoculated with 5×10^5 cells of the EMT6 tumor cell line, a mammary tumor. The mice were then treated with normal saline (control) or normal saline containing 15 mg/kg of Compound 1 (study) on days 1, 5 and 9 after the inoculation.
The average tumor volume was then calculated for each group of mice.

mice = conditions: i.v., Merck Index; cited from earlier work
[9] = first four cancer cell lines (two leukemias and two carcinomas)

Structure (SMILES) | IC50 [1] [nM] | IC50 (HT-29 (colon carcinoma)) [nM] | IC50 (MCF-7 (breast carcinoma)) [nM] | IC50 (MOLT-4 (T cell leukemia)) [nM] | IC50 (SK-Mel-28 (melanoma)) [nM] | IC50 [2] [nM] | IC50 (P-388 (mouse leukemia)) [nM] | IC50 [3] [nM] | IC50 (UCLA-P3 (lung carcinoma)) [nM] | IC50 [4] [µM] | IC50 [5] [µM] | IC50 (CHO cells) [µM] | IC50 [6] [µM] | potency relative to daunomycin [7, 9] | LD50 (LD50 in mice) [mg/kg] | also measured
COc1cccc2c1C(=O)c1c(O)c3c(c(O)c1C2=O)C[C@@](O)(C(C)=O)C[C@@H]3O[C@H]1C[C@H](NC(=O)OCCS(=O)(=O)c2ccccc2)[C@H](O)[C@H](C)O1 [Compound 1, 8-Acetyl-10-[[3-[N-[2-(phenylsulfonyl)-ethoxycarbonyl]]amino-2,4,6-trideoxy-1-lyxo-hexapyranosyl]oxy]-7,8,9,10-tetrahydro-6,8,11-trihydroxy-1-methoxy-5,12-naphthacenedione] | 98 | 780 | 780 | 1 | 3100 | 780 | 780 | 1600 | 3100 | 13 | 13 | 6.3 | 25 | same potencies | ~35 | cancer cell cytotoxicity difference between Compound 1 and daunomycin ([7]; cancer cells): no difference to a four-fold difference; potency relative to daunomycin ([7]; final two carcinoma cell lines): about one-fourth the potency of daunomycin; potency relative to daunomycin ([7]; second three cancer cell lines (melanoma, pancreatic carcinoma and mouse leukemia)): about one-half the potency of daunomycin; tumor burden of treated mice vs control ([8]; 15 mg/kg on days 1, 5 and 9, between days 14 and 16): about one-third the tumor burden of the control group; average tumor volume vs control ([8]; 15 mg/kg on days 1, 5 and 9, by day 8 post inoculation): slight difference in the average volume of the tumors, with the study group having a lower tumor burden; control group's average tumor volume relative to study group ([8]; 15 mg/kg on days 1, 5 and 9, by day 20 post inoculation): about twice that of the study group; growth of mammary tumors ([8]; EMT-6 implanted in mice): retarded the growth of mammary tumors
COc1cccc2c1C(=O)c1c(O)c3c(c(O)c1C2=O)C[C@@](O)(C(C)=O)C[C@@H]3O[C@H]1C[C@H](N)[C@H](O)[C@H](C)O1 [Daunomycin] | < 98 | 780 | 780 | 1 | 1600 | 390 | 390 | 390 | 730 | 0.39 | 0.19 | 0.39 | 0.78 | same potencies | ~12 | LD50 (mice): 20 mg/kg
